Counter-ions that a name gives are not always drawn.
Columns and labels:
THP1-XBlue cells = assay: Cell viability in the THP-1 in vitro assay; type: cell-based, human; details: PMA-differentiated THP1-XBlue cells co-treated with LPS and composition, 24 hours; percentage to non-treated cells (=100%)
Protocol: (§1) The following procedure was used to determine the anti-inflammation efficacy: THP1-XBlue™ (Cat No: thpx-sp, InvivoGen) cells were cultured as suspense in RPMI 1640 medium supplemented with 10% FBS, penicillin (10 U/mL)-streptomycin (10 μg/ML). Cells were differentiated in 24-well plates at the density of 5×10^5 cells/well with 100 nM PMA for 72 hours. Cells were then co-treated with pure E. coli ipopolysaccharides (LPS) and various compositions. After 24 hours, the supernatants were collected and measured for interleukin (IL)-6 as a pro-inflammatory biomarker using enzyme-linked immunosorbent assay (ELISA). IL-6 is a cytokine, or cell-signaling protein, encoded in humans by the IL-6 gene which is both pro-inflammatory and anti-inflammatory and which stimulates the immune response to inflammation. Expression of IL-6 was calculated as the percentage to LPS-treated cells which was designated as 100%. It can be considered as no anti-inflammatory effect if the calculated result is over 100%. Cell viability was calculated as the percentage to non-treated cells which was designated as 100%. P value was analyzed by Student's t-test comparing combination groups and individual compound groups (expression of IL-6). P value <0.05 indicates synergistic effect.

interleukin (IL)-6 = assay: Human immune cell line THP-1 in vitro assay: IL-6 in supernatant by ELISA after co-treatment with LPS; type: cell-based; details: PMA-differentiated THP1-XBlue cells co-treated with E. coli LPS and composition, 24 hours; percentage to LPS-treated cells (=100%)
Protocol: as §1, with “Human Immune Cell Line THP-1 Invitro Assay The” for “The”, “IL-6).” for “IL-6). P value <0.05 indicates synergistic effect.”

SMILES	Cell Viability (%) (THP1-XBlue cells)	expression of IL-6 (%) (interleukin (IL)-6)
Cc1cc(CC(C)CC(C)(C)C)n(O)c(=O)c1 (stereo not shown) [B, 1-hydroxy-4-methyl-6-(2,4,4-trimethylpentyl)-2(1H) pyridinone monoethanolamine salt]	81	76.4
OCc1ccccc1O[C@@H]1O[C@H](CO)[C@@H](O)[C@H](O)[C@H]1O [C, salicin]	86	65.0

Source: US20220401352A1, “A COSMETIC COMPOSITION” (Conopco, Inc., d/b/a UNILEVER, priority 2019, published 2022)
